For this experiment, the target named is T1, human GnRH receptor (hGnRHR) (Homo sapiens, UniProt P30968).
T1 sequence (P30968 1-328): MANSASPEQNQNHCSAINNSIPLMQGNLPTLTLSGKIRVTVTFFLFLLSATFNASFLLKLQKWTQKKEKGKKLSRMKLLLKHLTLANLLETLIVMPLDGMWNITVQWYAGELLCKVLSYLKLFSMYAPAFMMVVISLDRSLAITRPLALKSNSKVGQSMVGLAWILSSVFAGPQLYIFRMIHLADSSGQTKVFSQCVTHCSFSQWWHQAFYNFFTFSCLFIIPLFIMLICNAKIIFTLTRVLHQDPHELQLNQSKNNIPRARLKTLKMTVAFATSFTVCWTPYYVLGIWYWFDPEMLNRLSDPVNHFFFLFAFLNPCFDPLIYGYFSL
In kind it is cell-based.

Turning to `Cc1cc(C)cc(-c2[nH]c3ccc(C(C)(C)C(=O)N4CC5CCC4CC5)cc3c2[C@H](C)CNCCc2ccncc2)c1` [IN3, (2S)-2-[5-[2-(2-axabicyclo[2.2.2]oct-2-yl)-1,1-dimethy-2-oxoethyl]-2-(3,5-dimethylphenyl)-1H-indol-3-yl]-N-(2-pyridin-4-ylethyl)propan-1-amine], the EC50 is 3–5×10^−8 M.
